The values that follow are results of earlier work, collected in patent US20230056788A1, “METHODS AND COMPOSITIONS FOR THE INHIBITION OF HEPATITIS B AND HEPATITIS D VIRUS INFECTIONS” (priority 2020, published 2023).

In the oligonucleotide strings, read from the 5' end, every base follows the letter of its sugar. An asterisk marks phosphorothioate; unmarked linkages are phosphodiester. Other units and linkages are bracketed, terminal groups are in braces. A string of capitals states the bases alone. [5mC] = 5-methylcytosine; m = 2'-O-methyl

Data set [1] concerns HBV. The conditions noted are these: HBeAg positive and negative chronic infection and HBV/HDV co-infection.
The test system of data set [2] is HBV.

On to “(2′OMeA, 2′OMe-5-MeC)20 (mA*m[5mC]*mA*m[5mC]*mA*m[5mC]*mA*m[5mC]*mA*m[5mC]*mA*m[5mC]*mA*m[5mC]*mA*m[5mC]*mA*m[5mC]*mA*m[5mC]*mA*m[5mC]*mA*m[5mC]*mA*m[5mC]*mA*m[5mC]*mA*m[5mC]*mA*m[5mC]*mA*m[5mC]*mA*m[5mC]*mA*m[5mC]*mA*m[5mC]; further chemistry not fully specified) [REP 2139]”, for which the “activity against infections with multiple HBV genotypes” value in the data set with HBV [1] is given as “potently active”.

“(2′OMeA, 2′OMe-5-MeC)10 (mA*m[5mC]*mA*m[5mC]*mA*m[5mC]*mA*m[5mC]*mA*m[5mC]*mA*m[5mC]*mA*m[5mC]*mA*m[5mC]*mA*m[5mC]*mA*m[5mC]; further chemistry not fully specified) [REP 2179, phosphorothioate 20mer counterpart of REP 2139]”: the antiviral activity result with HBV [2] is “(hydrophobic, inactive”.

As to “(2′OMeA, 2′OMe-5-MeC)20 (mAm[5mC]mAm[5mC]mAm[5mC]mAm[5mC]mAm[5mC]mAm[5mC]mAm[5mC]mAm[5mC]mAm[5mC]mAm[5mC]mAm[5mC]mAm[5mC]mAm[5mC]mAm[5mC]mAm[5mC]mAm[5mC]mAm[5mC]mAm[5mC]mAm[5mC]mAm[5mC]; further chemistry not fully specified) [REP 2147, non phosphorothioated (phosphodiester) counterpart of REP 2139]”, the antiviral activity entry with HBV [2] is “inactive”.
